# Data published in patent US20100137419A1, “ANTI-CANCER AGENT” (WAN STATION CO., LTD., priority 2006, published 2010).
# How the values were obtained:
# [1] = heat stability of the rotaxane compound; format: physicochemical
# [2] = test system: mouse malignant melanoma cell line (B16); experiment: Examination of anti-cancer action 2 (with electroporation), cell survival rate with Tetra Color One; format: cell-based; details: DMSO 0.1%
# Experimental: (§1) Subsequently, the cell line contained in each of the samples A0 to A5 was cultured in a CO2 incubator for 24 hours. The temperature in the CO2 incubator was set at 37.0° C., and the concentration of CO2 was set at 5.0%. Thereafter, 10 μl of a cell proliferation test reagent (manufactured by Seikagaku Corp.; product name: Tetra Color One) was added to each sample, and they were reacted in a CO2 incubator for 2 hours. Thereafter, the absorbance at a wavelength of 450 nm (control wavelength: 600 nm) was measured using a microplate reader (manufactured by Bio-Rad Laboratories, Inc.), so as to measure the survival rate of the cell line. The survival rate was measured at time points of 24, 48, and 72 hours after the reaction with the cell proliferation test reagent.
# Thereafter, a DC pulse of 30 V was applied to the electrodes of each cuvette 10 times, so as to perform an electroporation operation.
# Subsequently, the cell line contained in the samples D0 to D2 were cultured under the same conditions as those described in the “determination of solvent concentration” above, and the cell proliferation test reagent was reacted therewith. Then, the survival rate of the cells was measured at 0, 24, 48, and 72 hours after the reaction.
# [3] = test system: mouse malignant melanoma cell line (B16); experiment: Examination of anti-cancer action 1 (without electroporation), cell survival rate with Tetra Color One; format: cell-based; details: 10 and 100 nM, DMSO 0.1%, without electroporation, 0, 24, 48, 72 hours (FIG. 3)
# Experimental: as §1
# Subsequently, the cell line contained in the samples C0 to C2 were cultured under the same conditions as those described in the “determination of solvent concentration” above, and the cell proliferation test reagent was reacted therewith. Then, the survival rate of the cells was measured at 0, 24, 48, and 72 hours after the reaction.
substance,measurement,setting,value
"[2][bis (2-(3,5-dimethylphenylcarbonyloxy)ethyl) ammonium trifluoromethanesulfonate]-[dibenzo-24-crown-8] rotaxane",heat stability,[1],relatively heat-stable
same,survival rate / proliferation of cancer cells,"[2]; 10 and 100 nM, electroporation 30 V DC pulse 10 times, 0, 24, 48, 72 hours (FIG. 4)",suppress the proliferation of cancer cells became significant
same,survival rate / number of cancer cells over time,"[2]; sample D2: 100 nM, electroporation 30 V, 0-72 hours (FIG. 4)",cancer cells were reduced over time
same,survival rate / proliferation of cancer cells,[3],has an effect of retarding the proliferation of cancer cells
